Data published in US7173129B2, “Sulfonamide-substituted chalcone derivatives and their use to treat diseases” (Athero Genics, Inc., priority 2003, dated 2007).

Tests used:
[1] = test system: VCAM-1; experiment: In Vitro VCAM-1 Assay (TNF-α stimulated endothelial cells, cell-surface ELISA); format: cell-based; details: primary human aortic (HAEC) or pulmonary (HPAEC) endothelial cells, TNF-α 1 ng/ml, approximately 16 hours, ELISA OD 450 nm
Procedure: Cell Culture and compound dosing: Cultured primary human aortic (HAEC) or pulmonary (HPAEC) endothelial cells were obtained from Clonetics, Inc., and were used below passage 9. Cells were seeded in 96 well plates such that they would reach 90–95% confluency by the following day. On the following day the cells were stimulated with TNF-α (1 ng/ml) in the presence or absence of compounds dissolved in DMSO such that the final concentration of DMSO is 0.25% or less. To establish a dose curve for each compound, four concentrations in 2- to 5-fold increments were used. Cells were exposed to TNF-α and compounds for approximately 16 hours. The next day the cells were examined under microscope to score for visual signs of toxicity or cell stress.
Following 16 hr exposure to TNF-α and compound the media was discarded and the cells were washed once with Hanks Balanced Salt Solution (HBSS)/Phosphate buffered saline (PBS) (1:1). Primary antibodies against VCAM-1 (0.25 μg/ml in HBSS/PBS+5% FBS) were added and incubated for 30–60 minutes at 37° C. Cells were washed with HBSS/PBS three times, and secondary antibody Horse Radish Peroxidase (HRP)-conjugated goat anti-mouse IgG (1:500 in HBSS/PBS+5% FBS) were added and incubated for 30 minutes at 37° C. Cells were washed with HBSS/PBS four time and TMB substrate were added and incubated at room temperature in the dark until there was adequate development of blue color. The length of time of incubation was typically 5–15 minutes. 2N sulfuric acid was added to stop the color development and the data was collected by reading the absorbance on a BioRad ELISA plate reader at OD 450 nm. The results are expressed as IC50 values (the concentration (micromolar) of compound required to inhibit 50% of the maximal response of the control sample stimulated by TNF-α only).

[2] = Homo sapiens, Endothelial cell, 16 h

| SMILES | melting point | IC50 [1, 2] | IC50 ([1]; sodium salt) | IC50 ([1]; Endothelial cell) |
| --- | --- | --- | --- | --- |
| COc1cc(OCC(CO)CO)c(/C=C/C(=O)c2ccc(S(=O)(=O)Nc3cc(C)on3)cc2)cc1-c1cccs1 [Example 13, 4-{3E-[2-(3-Hydroxy-2-hydroxymethylpropoxy)-4-methoxy-5-thien-2-ylphenyl]acryloyl}-N-(5-methylisoxazol-3-yl)benzenesulfonamide] | 165 to 166 °C | > 10 µM | – | – |
| COc1cc(OC)c(-c2cccs2)cc1/C=C/C(=O)c1ccc(S(=O)(=O)NN2CCCCC2)cc1 [Example 22, 4-[3E-(2,4-Dimethoxy-5-thien-2-ylphenyl)acryloyl]-N-piperidin-1-ylbenzenesulfonamide] | 174 to 176 °C | > 10 µM | – | – |
| COc1cc(OC)c(-c2cccs2)cc1/C=C/C(=O)c1ccc(S(=O)(=O)NCC(=O)O)cc1 [Example 26, {4-[3E-(2,4-Dimethoxy-5-thien-2-ylphenyl)acryloyl]benzenesulfonylamino}acetic acid] | 100 to 101 °C | > 10 µM | – | – |
| CONS(=O)(=O)c1ccc(C(=O)/C=C/c2cc(-c3cc4ccccc4n3C)c(OC)cc2OC)cc1 [Example 30, 4-{3E-[2,4-Dimethoxy-5-(1-methyl-1H-indol-2-yl)phenyl]acryloyl}-N-methoxybenzenesulfonamide] | 214 to 216 °C | < 10 µM | – | – |
| COc1cc(OC)c(-c2cc3ccccc3n2C)cc1/C=C/C(=O)c1ccc(S(=O)(=O)N(C)C)cc1 [Example 31, 4-{3E-[2,4-Dimethoxy-5-(1-methyl-1H-indol-2-yl)phenyl]acryloyl}-N,N-dimethylbenzenesulfonamide] | 120 to 122 °C | < 10 µM | – | – |
| COc1cc(OC)c(-c2cc3ccccc3n2C)cc1/C=C/C(=O)c1ccc(S(=O)(=O)NO[Si](C)(C)C(C)(C)C)cc1 [Example 33, 4-{3E-[2,4-Dimethoxy-5-(1-methyl-1H-indol-2-yl)phenyl]acryloyl}-N-(tert-butyldimethylsiloxy)benzenesulfonamide] | 129 to 131 °C | – | – | > 10 µM |
| COc1cc(OC)c(-c2cc3ccccc3n2C)cc1/C=C/C(=O)c1ccc(S(=O)(=O)NO)cc1 [Example 34, 4-{3E-[2,4-Dimethoxy-5-(1-methyl-1H-indol-2-yl)phenyl]acryloyl}-N-hydroxybenzenesulfonamide] | > 260 °C | > 10 µM | – | – |
| COc1cc(OC)c(-c2cc3ccccc3[nH]2)cc1/C=C/C(=O)c1ccc(S(=O)(=O)NC(C)=O)cc1 [Example 42, N-Acetyl-4-{3E-[5-(1H-indol-2-yl)-2,4-dimethoxyphenyl]acryloyl}benzenesulfonamide] | 218 to 220 °C | > 10 µM | – | – |
| COc1cc(OC)c(-c2cc3ccccc3[nH]2)cc1/C=C/C(=O)c1ccc(S(=O)(=O)[N-]C(C)=O)cc1.[Na+] [Example 43, N-Acetyl-4-{3E-[5-(1H-indol-2-yl)-2,4-dimethoxyphenyl]acryloyl}benzenesulfonamide sodium salt] | 240 to 250 °C | – | < 5 µM | – |
| COc1cc(OC)c(-c2cc3ccccc3[nH]2)cc1/C=C/C(=O)c1ccc(S(=O)(=O)NCCCn2ccnc2)cc1 [Example 50, N-(3-Imidazol-1-yl-propyl)-4-{3E-[5-(1H-indol-2-yl)-2,4-dimethoxy-phenyl]acryloyl}benzenesulfonamide] | 197 to 200 °C | > 10 µM | – | – |

The next lines start with results.

| melting point | IC50 [1, 2] | IC50 ([1]; sodium salt) | SMILES | IC50 ([1]; Endothelial cell) |
| --- | --- | --- | --- | --- |
| 228 to 229 °C | < 10 µM | – | COc1cc(OC)c(-c2cccs2)cc1/C=C/C(=O)c1ccc(S(=O)(=O)Nc2ccc(C(F)(F)F)cn2)cc1 [Example 12, 4-[3E-(2,4-Dimethoxy-5-thien-2-ylphenyl)acryloyl]-N-(5-trifluoromethylpyridin-2-yl)benzenesulfonamide] | – |
| > 260 °C | < 5 µM | – | COc1cc(OCCN2CCOCC2)c(/C=C/C(=O)c2ccc(S(=O)(=O)Nc3cc(C)on3)cc2)cc1-c1cccs1.Cl [Example 14, 4-{3E-[4-Methoxy-2-(2-morpholin-4-yl-ethoxy)-5-thien-2-ylphenyl]acryloyl}-N-(5-methyl-isoxazol-3-yl)benzenesulfonamide hydrochloride] | – |
| 167 to 168 °C | < 10 µM | – | COc1cc(OC)c(-c2cc3ccccc3n2C)cc1/C=C/C(=O)c1ccc(S(=O)(=O)NCCN2CCOCC2)cc1 [Example 18, 4-{3E-[2,4-Dimethoxy-5-(1-methyl-1H-indol-2-yl)phenyl]acryloyl}-N-(2-morpholin-4-yl-ethyl)benzenesulfonamide] | – |
| 167 to 168 °C | < 5 µM | – | COc1cc(OC)c(-c2cccs2)cc1/C=C/C(=O)c1ccc(S(=O)(=O)NCc2cccnc2)cc1 [Example 19, 4-[3E-(2,4-Dimethoxy-5-thien-2-ylphenyl)acryloyl]-N-pyridin-3-ylmethylbenzenesulfonamide] | – |
| 171 to 172 °C | < 5 µM | – | COc1cc(OC)c(-c2cccs2)cc1/C=C/C(=O)c1ccc(S(=O)(=O)NCCN2CCOCC2)cc1 [Example 20, 4-[3E-(2,4-Dimethoxy-5-thien-2-ylphenyl)acryloyl]-N-(2-morpholin-4-yl-ethyl)benzenesulfonamide] | – |
| 160 to 162 °C | < 5 µM | – | COc1cc(OC)c(-c2cccs2)cc1/C=C/C(=O)c1ccc(S(=O)(=O)NCCCn2ccnc2)cc1 [Example 23, 4-[3E-(2,4-Dimethoxy-5-thien-2-ylphenyl)acryloyl]-N-(3-imidazol-1-ylpropyl)benzenesulfonamide] | – |
| 167 to 168 °C | < 5 µM | – | COc1cc(OC)c(-c2cccs2)cc1/C=C/C(=O)c1ccc(S(=O)(=O)NCC(F)(F)F)cc1 [Example 24, 4-[3E-(2,4-Dimethoxy-5-thien-2-ylphenyl)acryloyl]-N-(2,2,2-trifluoroethyl)benzenesulfonamide] | – |
| 205 °C (dec.) | < 10 µM | – | COc1cc(OC)c(-c2cccs2)cc1/C=C/C(=O)c1ccc(S(=O)(=O)NC(C)(C)C(=O)O)cc1 [Example 27, 2-{4-[3E-(2,4-Dimethoxy-5-thien-2-yl-phenyl)acryloyl]benzenesulfonylamino}-2-methylpropionic acid] | – |
| 129 to 131 °C | < 5 µM | – | CNS(=O)(=O)c1ccc(C(=O)/C=C/c2cc(-c3cc4ccccc4n3C)c(OC)cc2OC)cc1 [Example 29, 4-{3E-[2,4-Dimethoxy-5-(1-methyl-1H-indol-2-yl)phenyl]acryloyl}-N-methyl-benzenesulfonamide] | – |
| 158 to 162 °C | < 5 µM | – | COc1cc(OC)c(-c2cc3ccccc3[nH]2)cc1/C=C/C(=O)c1ccc(S(=O)(=O)N(C)C)cc1 [Example 32, 4-{3E-[5-(1H-Indol-2-yl)-2,4-dimethoxyphenyl]acryloyl}-N,N-dimethylbenzenesulfonamide] | – |
| 243 to 245 °C (dec.) | < 5 µM | – | COc1cc(OC)c(-c2cc3ccccc3[nH]2)cc1/C=C/C(=O)c1ccc(S(=O)(=O)NC(=O)C(C)C)cc1 [Example 35, 4-{3E-[5-(1H-Indol-2-yl)-2,4-dimethoxyphenyl]acryloyl}-N-isobutyrylbenzenesulfonamide] | – |
| 144 to 146 °C | < 5 µM | – | CCCC(=O)NS(=O)(=O)c1ccc(C(=O)/C=C/c2cc(-c3cc4ccccc4n3C)c(OC)cc2OC)cc1 [Example 37, N-Butyryl-4-{3E-[2,4-dimethoxy-5-(1-methyl-1H-indol-2-yl)phenyl]acryloyl}benzenesulfonamide] | – |
| 164 to 165 °C | < 5 µM | – | COc1cc(OC)c(N2CCCC2)cc1/C=C/C(=O)c1ccc(S(=O)(=O)Nc2cc(C)on2)cc1 [Example 38, 4-[3E-(2,4-Dimethoxy-5-pyrrolidin-1-yl-phenyl)acryloyl]-N-(5-methyl-isoxazol-3-yl)benzenesulfonamide] | – |
| 178 to 182 °C | < 5 µM | – | COc1cc(OCCCO)c(/C=C/C(=O)c2ccc(S(=O)(=O)Nc3cc(C)on3)cc2)cc1-c1cccs1 [Example 39, 4-{3E-[2-(3-Hydroxy-propoxy)-4-methoxy-5-thien-2-ylphenyl]acryloyl}-N-(5-methylisoxazol-3-yl)benzenesulfonamide] | – |
| 113 to 115 °C | < 5 µM | – | COc1cc(OC)c(-c2cccn2C)cc1/C=C/C(=O)c1ccc(S(=O)(=O)Nc2cc(C)on2)cc1 [Example 44, 4-{3E-[2,4-Dimethoxy-5-(1-methyl-1H-pyrrol-2-yl)phenyl]acryloyl}-N-(5-methyl-isoxazol-3-yl)benzenesulfonamide] | – |
| 223 to 225 °C | < 5 µM | – | CCC(=O)NS(=O)(=O)c1ccc(C(=O)/C=C/c2cc(-c3cc4ccccc4[nH]3)c(OC)cc2OC)cc1 [Example 45, 4-{3E-[5-(1H-Indol-2-yl)-2,4-dimethoxyphenyl]acryloyl}-N-propionyl-benzenesulfonamide] | – |
